Reference: US20180353524A1, “CANCER TREATMENT USING 2-DEOXY-2-FLUORO-L-FUCOSE IN COMBINATION WITH A CHECKPOINT INHIBITOR” (SEATTLE GENETICS, INC., priority 2015, published 2018)

Tests used:
regulatory T-cells = test: Regulatory T-cell and FOXp3 analysis in T-cell cultures (FACS); format: cell-based, human; details: T-cell culture
Method: Regulatory T-cells in cultures were identified using the Human Regulatory T-cell Cocktail (BD Pharmingen™) and analyzed using FACS. Briefly, cells were washed into BD stain buffer (BSA) with human Fc block (EMD Millipore) and incubated on ice for 30 min. Cells were then stained with fluorescently labeled Human Regulatory T-cell Cocktail (BD Pharmingen™, 1:100 in BD stain buffer (BSA)) or with appropriate isotype controls (ice, dark, 40 min). Cells were then washed twice in BD stain buffer (BSA) and analyzed on an LSRII flow cytometer. Regulatory T-cells were identified as CD4+, CD25+ and CD127 LOW.
T-cells were prepared in the same manner as for intracellular staining as above, where they were fixed and permeabilized and stained with an anti-FOXp3 antibody (BD Biosciences) and analyzed by FACS. In brief, after incubation in BD stain buffer (FBS) with Human Fc block (Miltenyi Biotec) on ice for 30 min as described previously, cells were stained with anti-CD4 antibody for 20 min in the dark (RT). An equal volume of BD stain buffer (FBS) was added and samples were spun and washed once in BD stain buffer (FBS) followed by resuspension in cold BD Cytofix™ fixation buffer for 30 min at RT. Cells were pelleted washed twice in BD stain buffer (FBS), resuspended, and incubated in BD Perm/Wash™ buffer at RT for 30 min. […]

CMV reactive human PMBCs = test: In vitro 2FF and anti-PD1 antibody combination in human PBMCs (IFNγ, IL12p70); details: T-cells matured with 100-200 μM 2FF, co-culture with DCs, 5 μg/mL CMV antigen
Method: CMV reactive human PMBCs from a CMV positive donor (Astarte™ Biologics) were thawed, plated into a 6-well plate and cultured overnight in DC media (30% DMEM 70% X-vivo+2 mM glutamax+10% ATB serum+1% PS). The following day the supernatant was collected to isolate T-cells and the adhering cells were washed in media and then replenished with 2 mL media supplemented with IL4 (100 ng/μL) and GMCSF (200 ng/μL) per well to differentiate and proliferate the adhering monocytes into DCs. The plate was incubated for 4-5 days and then cells were moved into a T25 flask. Each time the cells were passaged (every 2-3 days) new cytokines were given. The T-cells in the supernatant were isolated using StemSep human T-cell enrichment kit (Stemcell technologies). The T-cells were then resuspended in T-cell media (RPMI+10% Fetal calf serum, 1% PS) and spilt into two T25 flasks (with or without 100-200 μM 2FF). CD3CD28 antibody coated beads (Miltenyi Biotec) (20 μL/flask) were added to activate the T-cells. After 24 h IL2 was added (100 ng/μL). Each time the cells were passaged new IL2 and 2FF were added. […]
IFNγ and IL12p70 in the supernatants from 5 day co-cultures were measured using a Lumenix assay and the concentration of each cytokine was calculated using an internal standard curve.

SMAD2 = test: TGFβ signaling, pSMAD2 western blot in T-cells; format: cell-based, human; details: TGFβ 5 ng/mL for 10 min after 6 h serum starvation
Method: Cells were plated in 6-well dishes (2.5×10^6 cells/well) with serum-free RPMI medium (1% PS, 2.5 mL) and after 6 h of serum starvation, cells were stimulated with TGFβ (5 ng/mL) for 10 min. The cells were harvested, washed twice in PBS, and snap frozen on dry ice followed by storage at −80 ° C. Cells were lysed with RIPA buffer (containing DNAse and protease/phosphatase inhibitors). As described previously, cell lysates were run on SDS-PAGE and examined by western blot on nitrocellulose membranes with anti-pSMAD2 and anti-actin antibodies.

A20 tumor vaccine model = test: Serum cytokines in A20 vaccine model; format: in vivo; details: BALB/c mice, with KLH-Idiotype vaccine vs KLH-Idiotype alone, no depletion
Method: KLH-A20 Id Fab was generated as described in Okeley et al PNAS 2012. A20 cells (ATCC) were cultured in RPMI 1640 with 10% FBS, 10 mM HEPES, 1 mM sodium pyruvate, 50 μM 2-mercaptoethanol and penicillin (100 U/ml)/streptomycin (100 μg/ml) (PS) Immunization groups (BALB/c, Harlan) were injected subcutaneously with the KLH-Fab conjugate (50 μg) with TiterMax adjuvant (1:1) on day-21 with a boost on day-7. 2-deoxy-2-fluoro-L-fucose treatment groups received drinking water containing 20 mM 2-deoxy-2-fluoro-L-fucose beginning on day -14. One week after the second vaccination (day 0), all mice received 2.5×10^6 A20 tumor cells (i.v.). 2-deoxy-2-fluoro-L-fucose treatment was continued until day 21 followed by normal drinking water. Depletion of immune cells was accomplished with depleting antibodies administered on days-6, -5, -4, 0 and +7 (200 μg/mouse i.p.). CD4 or CD8 T-cells depletion by anti-CD4 (GK1.5) or -CD8 (53-6.72) antibody was verified in blood at day-1, 7, 14, 21, 29 (FACS analysis). […] Thus CD4 and CD8 T-cells play a role in the combination activity.
Tissue culture supernatants from T-cell/DC co-cultures described previously were collected and assessed for cytokine changes by Luminex assay. Similarly, blood samples from an A20 vaccine model study were allowed to clot and serum was collected for analysis of cytokines (MCYTOMAG01L1X-13 Mouse Cytokine Magnetic Bead Panel, Millipore).

[1] = test system: regulatory T-cells (CD3+, CD4+, CD25+, FOXp3+); test: Regulatory T-cells in blood of rats dosed by oral gavage for 42 days (flow cytometry); format: in vivo, Sprague-Dawley rats; details: for Treg % Gated, percent change relative to pretest means: rat
Method: Sprague-Dawley rats (CD®[Crl:CD®(SD)] were administered 2-deoxy-2-fluoro-L-fucose by oral gavage daily for 42 consecutive days at doses of 0, 125, 500 or 2000 mg/kg/day. Blood samples (0.4 mL/timepoint) were collected in sodium heparin at pretest and days 2, 7, 22, 43, 49, 56, and 71 of the study. Samples were processed within 24 hours of collection. Aliquots of the specimens were stained with predetermined volumes of previously tested and titered monoclonal antibodies specific for each marker. The red cells in each tube were lysed and after staining the cells were fixed with Versalyse Lysis Buffer solution (Beckman Coulter). The prepared specimens were analyzed on a Beckman-Coulter FC 500 MPL flow cytometer.

## C[C@@H]1OC(O)[C@@H](F)[C@H](O)[C@@H]1O (stereo partly drawn) [2-deoxy-2-fluoro-L-fucose]
Regulatory T-cells; CD4+, CD25+, CD127 LOW
  regulatory T-cell populations (percent of total cells): decrease in regulatory T-cell populations
Regulatory T-cells; gated on CD4+
  expression of FOXp3+ in treated T-cells: decreased expression of FOXp3+
CMV reactive human PMBCs
  antigen specific T cell response (IFNγ, IL12p70) of 2FF matured T-cells vs control cell: elevated antigen specific T cell response
SMAD2
  SMAD2 phosphorylation following TGFβ stimulation vs control T-cells: reduced SMAD2 phosphorylation
A20 tumor vaccine model
  serum cytokines important for immune responses (IL15) in A20 tumor vaccine model: specific increases in cytokines
[1]; F, 125 mg/kg/day oral gavage, Day 2
  Treg % Gated, percent change relative to pretest means: −54%
[1]; F, 125 mg/kg/day oral gavage, Day 7
  Treg % Gated, percent change relative to pretest means: −67%
[1]; F, 125 mg/kg/day oral gavage, Day 22
  Treg % Gated, percent change relative to pretest means: −61%
[1]; F, 125 mg/kg/day oral gavage, Day 43
  Treg % Gated, percent change relative to pretest means: −64%
[1]; F, 125 mg/kg/day oral gavage, Day 49, recovery period
  Treg % Gated, percent change relative to pretest means: −40%
[1]; F, 125 mg/kg/day oral gavage, Day 56, recovery period
  Treg % Gated, percent change relative to pretest means: −51%
[1]; F, 125 mg/kg/day oral gavage, Day 71, recovery period
  Treg % Gated, percent change relative to pretest means: −45%
[1]; F, 500 mg/kg/day oral gavage, Day 2
  Treg % Gated, percent change relative to pretest means: −56%
[1]; F, 500 mg/kg/day oral gavage, Day 7
  Treg % Gated, percent change relative to pretest means: −60%
[1]; F, 500 mg/kg/day oral gavage, Day 22
  Treg % Gated, percent change relative to pretest means: −60%
[1]; F, 500 mg/kg/day oral gavage, Day 43
  Treg % Gated, percent change relative to pretest means: −50%
[1]; F, 500 mg/kg/day oral gavage, Day 49, recovery period
  Treg % Gated, percent change relative to pretest means: −43%
[1]; F, 500 mg/kg/day oral gavage, Day 56, recovery period
  Treg % Gated, percent change relative to pretest means: −38%
[1]; F, 500 mg/kg/day oral gavage, Day 71, recovery period
  Treg % Gated, percent change relative to pretest means: −40%
[1]; F, 2000 mg/kg/day oral gavage, Day 2
  Treg % Gated, percent change relative to pretest means: −41%
[1]; F, 2000 mg/kg/day oral gavage, Day 7
  Treg % Gated, percent change relative to pretest means: −39%
[1]; F, 2000 mg/kg/day oral gavage, Day 22
  Treg % Gated, percent change relative to pretest means: −43%
[1]; F, 2000 mg/kg/day oral gavage, Day 43
  Treg % Gated, percent change relative to pretest means: −28%
[1]; F, 2000 mg/kg/day oral gavage, Day 49, recovery period
  Treg % Gated, percent change relative to pretest means: −19%
[1]; F, 2000 mg/kg/day oral gavage, Day 56, recovery period
  Treg % Gated, percent change relative to pretest means: −16%
[1]; F, 2000 mg/kg/day oral gavage, Day 71, recovery period
  Treg % Gated, percent change relative to pretest means: −26%
[1]; M, 125 mg/kg/day oral gavage, Day 2
  Treg % Gated, percent change relative to pretest means: −44%
[1]; M, 125 mg/kg/day oral gavage, Day 7
  Treg % Gated, percent change relative to pretest means: −64%
[1]; M, 125 mg/kg/day oral gavage, Day 22
  Treg % Gated, percent change relative to pretest means: −65%
[1]; M, 125 mg/kg/day oral gavage, Day 43
  Treg % Gated, percent change relative to pretest means: −59%
[1]; M, 125 mg/kg/day oral gavage, Day 49, recovery period
  Treg % Gated, percent change relative to pretest means: −46%
[1]; M, 125 mg/kg/day oral gavage, Day 56, recovery period
  Treg % Gated, percent change relative to pretest means: −47%
[1]; M, 125 mg/kg/day oral gavage, Day 71, recovery period
  Treg % Gated, percent change relative to pretest means: −42%
[1]; M, 500 mg/kg/day oral gavage, Day 2
  Treg % Gated, percent change relative to pretest means: −61%
[1]; M, 500 mg/kg/day oral gavage, Day 7
  Treg % Gated, percent change relative to pretest means: −63%
[1]; M, 500 mg/kg/day oral gavage, Day 22
  Treg % Gated, percent change relative to pretest means: −64%
[1]; M, 500 mg/kg/day oral gavage, Day 43
  Treg % Gated, percent change relative to pretest means: −58%
[1]; M, 500 mg/kg/day oral gavage, Day 49, recovery period
  Treg % Gated, percent change relative to pretest means: −48%
[1]; M, 500 mg/kg/day oral gavage, Day 56, recovery period
  Treg % Gated, percent change relative to pretest means: −47%
[1]; M, 500 mg/kg/day oral gavage, Day 71, recovery period
  Treg % Gated, percent change relative to pretest means: −48%
[1]; M, 2000 mg/kg/day oral gavage, Day 2
  Treg % Gated, percent change relative to pretest means: −42%
[1]; M, 2000 mg/kg/day oral gavage, Day 7
  Treg % Gated, percent change relative to pretest means: −43%
[1]; M, 2000 mg/kg/day oral gavage, Day 22
  Treg % Gated, percent change relative to pretest means: −51%
[1]; M, 2000 mg/kg/day oral gavage, Day 43
  Treg % Gated, percent change relative to pretest means: −29%
[1]; M, 2000 mg/kg/day oral gavage, Day 49, recovery period
  Treg % Gated, percent change relative to pretest means: −6%
[1]; M, 2000 mg/kg/day oral gavage, Day 56, recovery period
  Treg % Gated, percent change relative to pretest means: −12%
[1]; M, 2000 mg/kg/day oral gavage, Day 71, recovery period
  Treg % Gated, percent change relative to pretest means: −13%
[1]; rats, all dosed groups (125, 500, 2000 mg/kg/day), beginning at Day 2
  relative proportion of regulatory T-cells (CD3+, CD4+, CD25+, FOXp3+) relative to pretest values: tended to decrease
